Broadly, the IC50 is the point on the concentration scale where inhibition reaches its midpoint. Low values mean greater potency in that assay, high ones weaker potency in that assay.

Experimental findings from patent US11129816B2, “Ring-fused thiazolino 2-pyridones in combination with a drug against tuberculosis” (QURETECH BIO AB, priority 2017, dated 2021) are described below.

The first experiment relates to Mtb. In words: Microplate Alamar Blue Assay (MABA). The class given is cell-based. The settings on record: Mycobacterium tuberculosis. How it is done: The IC50 value was measured for the compounds 55-65. The measurement was made in accordance with the Microplate Alamar Blue Assay (MABA) as described by Franzblau, S. G. et al in Tuberculosis (Edinb). 92, 453-88 (2012: The MABA utilizes the dye resazurin, which is dark blue and nonfluorescent in its oxidized form but becomes pink and fluorescent when reduced to resorufin as a result of cellular metabolism. The MABA is commonly used to evaluate the efficacy of compounds in restraining Mtb growth, but also serves as an assay for aerobic respiration. The degree of the color change was monitored and quantified, and performing this assay with a range of compound concentrations allowed for calculating IC50 values for compounds. The IC50 value is defined as the concentration of the compound that inhibits the MABA color change by 50%.
(In general: The colour change of resazurin is a common sign of viable cells or microbes.)
For the compound `O=C(O)C1CSc2c(C3CC3)c(-c3nc4ccccc4o3)cc(=O)n21` (stereo not shown) [Example 55, 1H-imidazol-1-ium 7-(benzo[d]oxazol-2-yl)-8-cyclopropyl-5-oxo-3,5-dihydro-2H-thiazolo[3,2-a]pyridine-3-carboxylate], half-maximal inhibition (IC50) required 39.1 µM.

In turn, `O=C(O)C1CSc2c(C3CC3)c(-c3cc(-c4cccc5ccccc45)no3)cc(=O)n21` (stereo not shown) [Example 56, 1H-imidazol-1-ium 8-cyclopropyl-7-(3-(naphthalen-1-yl)isoxazol-5-yl)-5-oxo-3,5-dihydro-2H-thiazolo[3,2-a]pyridine-3-carboxylate] registered an IC50 of 2.53 µM.

Compound `O=C(O)C1CSc2c(C3CC3)c(-c3cc(-c4cccc(C(F)(F)F)c4)no3)cc(=O)n21` (stereo not shown) [Example 57, 1H-imidazol-1-ium 8-cyclopropyl-5-oxo-7-(3-(3-(trifluoromethyl)phenyl)isoxazol-5-yl)-3,5-dihydro-2H-thiazolo[3,2-a]pyridine-3-carboxylate] yielded an IC50 of 2.53 µM.

On to `O=C(O)C1CSc2c(C3CC3)c(-c3cc(-c4cccs4)no3)cc(=O)n21` (stereo not shown) [Example 58, 1H-imidazol-1-ium 8-cyclopropyl-5-oxo-7-(3-(thiophen-2-yl)isoxazol-5-yl)-3,5-dihydro-2H-thiazolo[3,2-a]pyridine-3-carboxylate], for which the IC50 was 28.9 µM.

Compound `O=C(O)C1CSc2c(C3CC3)c(-c3cc(-c4ccccc4)no3)cc(=O)n21` (stereo not shown) [Example 59, 1H-imidazol-1-ium 8-cyclopropyl-5-oxo-7-(3-phenylisoxazol-5-yl)-3,5-dihydro-2H-thiazolo[3,2-a]pyridine-3-carboxylate] returned an IC50 of 15.6 µM.

`O=C(O)C1CSc2c(-c3cc(-c4ccccc4)no3)c(Cc3cccc4ccccc34)c(Br)c(=O)n21` (stereo not shown) [Example 60, 1H-imidazol-1-ium 6-bromo-7-(naphthalen-1-ylmethyl)-5-oxo-8-(3-phenylisoxazol-5-yl)-3,5-dihydro-2H-thiazolo[3,2-a]pyridine-3-carboxylate] showed an IC50 of 4.51 µM.

Turning to `O=C(O)C1CSc2c(C3CC(c4ccccc4)=NO3)c(Cc3cccc4ccccc34)cc(=O)n21` (stereo not shown) [Example 61, 1H-imidazol-1-ium 7-(naphthalen-1-ylmethyl)-5-oxo-8-(3-phenyl-4,5-dihydroisoxazol-5-yl)-3,5-dihydro-2H-thiazolo[3,2-a]pyridine-3-carboxylate], the IC50 worked out at 82.7 µM.

`C#Cc1c(Cc2cccc3ccccc23)cc(=O)n2c1SCC2C(=O)O` (stereo not shown) [Example 62, 1H-imidazol-1-ium 8-ethynyl-7-(naphthalen-1-ylmethyl)-5-oxo-3,5-dihydro-2H-thiazolo[3,2-a]pyridine-3-carboxylate] displayed an IC50 of 53.5 µM.

On to `O=C(O)C1CSc2c(-c3cc(-c4ccccc4)no3)c(Cc3cccc4ccccc34)cc(=O)n21` (stereo not shown) [Example 63, 1H-imidazol-1-ium 7-(naphthalen-1-ylmethyl)-5-oxo-8-(3-phenylisoxazol-5-yl)-3,5-dihydro-2H-thiazolo[3,2-a]pyridine-3-carboxylate], for which the IC50 is 12.7 µM.

With `O=C(O)C1CSc2c(-c3cc(-c4cccc5ccccc45)no3)c(Cc3cccc4ccccc34)cc(=O)n21` (stereo not shown) [Example 64, 1H-imidazol-1-ium 8-(3-(naphthalen-1-yl)isoxazol-5-yl)-7-(naphthalen-1-ylmethyl)-5-oxo-3,5-dihydro-2H-thiazolo[3,2-a]pyridine-3-carboxylate], half-maximal inhibition (IC50) required 14.4 µM.

Compound `O=C(O)C1CSc2c(C3CC3)c(Cc3cccc4ccccc34)cc(=O)n21` (stereo not shown) [Example 65, 1H-imidazol-1-ium 8-cyclopropyl-7-(naphthalen-1-ylmethyl)-5-oxo-3,5-dihydro-2H-thiazolo[3,2-a]pyridine-3-carboxylate] gave an IC50 of 8.47 µM.

The test system of a further experiment is Mycobacterium tuberculosis Erdman. In words: Treatment of Mycobacterium tuberculosis Erdman liquid culture with Q203 in the absence or presence of Example 1 (CFU count and ODλ600). The class given is cell-based. The settings on record: Sauton's media; Example 1 25 μM or Q203 0.4 μM alone; day 15; compared to DMSO control.
Turning to `O=C(O)[C@@H]1CSc2c(C3CC3)c(Cc3cccc4ccccc34)cc(=O)n21` [Example 1, (3R)-7-Cyclopropyl-6-[(1-naphthyl)methyl]-4-oxo-1-thia-3a-aza-3-indancarboxylic acid], the “ODλ600 value (FIG. 3b)” value is “decrease the ODλ600 value considerably”.

As to `CCc1nc2ccc(Cl)cn2c1C(=O)NCc1ccc(N2CCC(c3ccc(OC(F)(F)F)cc3)CC2)cc1` [Example Q203, 6-chloro-2-ethyl-N-[(4-{4-[4-(trifluoromethoxy)phenyl]piperidin-1-yl}phenyl)methyl]imidazo[1,2-a]pyridine-3-carboxamide, reference compound], the “ODλ600 value (FIG. 3b)” value was “decrease the ODλ600 value considerably”.
